Measurements as given in paper PMC6759624, “Unraveling Heparan Sulfate Proteoglycan Binding Motif for Cancer Cell Selectivity” (Frontiers in Oncology, 2019).
Entries after “also recorded” stand apart in the source; their conditions may differ.

Tests used:
[1] = parameters: method as in PMID 27255651; details: compared with heparin and HS; ref [13]; cited from earlier work
syndecan-3 = experiment: SPR, NT4 binding to recombinant syndecan-3; parameters: species or system human; details: rHSPG 25 μg/mL over immobilized NT4
Procedure: (§1) Experiments were performed on a Biacore T100 instrument (GE Healthcare). All materials were purchased from GE Healthcare unless otherwise specified. Full-length recombinant human HSPG were purchased from R&D Systems. Syndecan-3, syndecan-4, and glypican-3 were obtained from the mouse myeloma cell line (NS0), and glypican-4 was obtained from the Chinese Hamster Ovary cell line. The activity of syndecan-4, glypican-3, and glypican-4 was measured by the supplier as the ability of the immobilized protein to bind FGF-basic. The activity of syndecan-3 was measured by the supplier as the ability of the immobilized protein to inhibit adhesion of Saos-2 human osteosarcoma cells to human fibronectin.
(§2) NT4-biotin was captured on a CM5 sensor chip where streptavidin had previously been immobilized by standard amine coupling. Briefly, the sensor chip surface was activated with a mixture of 0.1 M 1-ethyl-3(3-dimethylaminopropyl)-carbodiimide (EDC) and 0.4 M N-hydroxyl succinimide (NHS) for 7 min at a flow rate of 5 μl/min. Streptavidin was injected over the surface for 7 min, and finally, 1 M ethanolamine pH 8.5 was used to block any activated carboxyl groups. […]
(§3) Kinetics were analyzed with the Biacore T100 evaluation 1.1.1 software using the 1:1 Langmuir model to fit the curves.

[2] = tested on: pancreas adenocarcinoma cells; details: ref [13]; cited from earlier work
Source text: (§4) NT4 peptides can be conjugated with different functional units and can selectively deliver drugs for cancer therapy or transport tracers for tumor imaging ([11], [12], [15]–[18]). […] NT4 transports the chemotherapeutic moiety to the cancer cell membrane and, ultimately, into the cell ([14]–[16]). In animal models of cancer, the higher concentration of the cytotoxic drug at the site of the tumo ...

breast cancer cells = details: ref [13], [20]; cited from earlier work
Source text: as §4

glypican-4 = experiment: SPR, NT4 binding to recombinant glypican-4; parameters: species or system human; details: rHSPG over immobilized NT4
Procedure: as §1, §2, §3

[3] = tested on: cell lines of different human cancers, including colon adenocarcinoma, pancreas adenocarcinoma, bladder cancer, and breast cancer; details: ref [11], [12]; cited from earlier work
Source text: (§5) NT4 peptide is a tetrabranched peptide that binds to GAG chains of HSPG. […] NT4 binds cell lines of different human cancers, including colon adenocarcinoma, pancreas adenocarcinoma, bladder cancer, and breast cancer ([11], [12]).

PgsA-745 cells = details: Chinese hamster ovary cell mutant, deficient in xylosyltransferase; ref [13]; cited from earlier work
Source text: as §5

[4] = ref [9], [10]; cited from earlier work
Source text: as §5

glypican-3 = experiment: SPR, NT4 binding to recombinant glypican-3; parameters: species or system human; details: rHSPG over immobilized NT4
Procedure: as §1, §2, §3

syndecan-4 = experiment: SPR, NT4 binding to recombinant syndecan-4; parameters: species or system human; details: rHSPG over immobilized NT4
Procedure: as §1, §2, §3

[5] = ref [13], [19] (b5); cited from earlier work
Source text: NT4 peptides can be conjugated with different functional units and can selectively deliver drugs for cancer therapy or transport tracers for tumor imaging ([11], [12], [15]–[18]). […] NT4 transports the chemotherapeutic moiety to the cancer cell membrane and, ultimately, into the cell ([14]–[16]).

cancer cells or tissues = tested on: cancer cells or tissues; parameters: method as in PMID 27255651, PMID 23713525; details: competitors heparin and HS; ref [13], [19]; cited from earlier work

- binding to glypican-4 (glypican-4): bound; also recorded: binds
- binding to glypican-3 (glypican-3): bound; also recorded: binds
- binding to syndecan-4 (syndecan-4): binds
Substance: (pyELYENKPRRPYIL)4K2K-beta-Ala [NT4]
- binding to chondroitin sulfate [1]: lower affinity
- binding to syndecan-3 (syndecan-3): does not bind; also recorded: did not bind
- effect on oriented migration [2]: inhibited
- effect on growth factor-induced migration and invasiveness (breast cancer cells): inhibited
- binding to human cancer cell lines [3]: binds
- binding to cells lacking GAG chains (PgsA-745 cells): does not bind
- half-life (in words) [4]: long half-life
- stability to proteolytic enzymes [4]: stable to proteolytic enzymes
- binding to heparan sulfate [5]: preferential high-affinity binding
- binding to heparin [5]: preferential high-affinity binding
- inhibition of NT4 binding and internalization by heparin and HS (cancer cells or tissues): completely inhibited
